Values joined by “and” are separate entries in the source; they are usually repeats but may differ in a detail not shown here. Identical values can stand only once.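 Growth conditions: 96-well plates. Treatment: test compound, 48 hours, 5 concentrations. Analysis: linear interpolation between bracketing concentrations; unreached endpoints set to highest concentration. Here, GI50 denotes the concentration required for 50% inhibition of growth. TGI: concentration producing complete growth inhibition.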

Some test systems named below: LOX IMVI melanoma; MDA-MB-435; NCI/ADR-RES ovarian; NCI-H522 lung; CAKI-1 renal; M14 melanoma; SF-268 CNS; NCI-H460 lung; HOP-62 NSCLC.
Holding throughout (assay): DTP human tumour cell line panel, 48 h

By GI50 is commonly meant the concentration that inhibits growth by half. A word on the TGI: it is the concentration giving total growth inhibition. `COC1=C2C[C@@H](C)C[C@@H](OC)[C@@H](O)[C@H](C)/C=C(\C)[C@@H](OC(N)=O)[C@H](OC)/C=C\C=C(/C)C(=O)NC(=CC1=O)C2=O`: in the test on LOX IMVI melanoma, the GI50 was 0.0208 µM and 0.051 µM and 0.0459 µM. Moreover, the TGI in the test on LOX IMVI melanoma is 1.48 µM and 1.38 µM; in the test on MDA-MB-435 it was 5.5 µM and 8.63 µM and 5.65 µM; with NCI/ADR-RES ovarian, 10.7 µM and 32.8 µM and 10.6 µM.
For the compound `COc1ccc(C(=O)C(C(=O)C(=O)NC2C3CC4CC(C3)CC2C4)c2ccc(OC)cc2)cc1` (stereo unspecified), the TGI in the test with NCI-H522 lung, with LOX IMVI melanoma, in the test with CAKI-1 renal, in the test with M14 melanoma, in the test with SF-268 CNS and with NCI-H460 lung was more than 100 µM throughout. In addition, the TGI in the test on HOP-62 NSCLC is more than 100 µM.
With `CCC1CC(C)=CCN1S(=O)(=O)c1ccc(C)cc1` (stereo unspecified), the concentration for total growth inhibition (TGI) was 46.4 µM in the test with NCI-H522 lung; 33.6 µM with LOX IMVI melanoma; more than 100 µM in the test on CAKI-1 renal; 57.5 µM in the test with M14 melanoma; 62.1 µM in the test on SF-268 CNS; 91.7 µM in the test on NCI-H460 lung. The compound further came in with a TGI with HOP-62 NSCLC of 84.6 µM.
`CN(C)C1=NC2=S(SC(Nc3ccccc3)=N2)S1` (stereo unspecified): the TGI is 60.2 µM in the test on NCI-H522 lung; more than 100 µM with LOX IMVI melanoma; 60.7 µM in the test with CAKI-1 renal; more than 100 µM in the test on M14 melanoma; more than 100 µM in the test on SF-268 CNS; more than 100 µM with NCI-H460 lung. Further, the TGI in the test on HOP-62 NSCLC was 67.7 µM.
Regarding `NC(=O)Nc1c([N+](=O)[O-])cc(C(F)(F)F)cc1[N+](=O)[O-]`, the TGI with NCI-H522 lung, in the test on LOX IMVI melanoma, with CAKI-1 renal, in the test on M14 melanoma, with SF-268 CNS and with NCI-H460 lung was more than 100 µM in each case. The TGI in the test with HOP-62 NSCLC was more than 100 µM.
For the compound `O=C(c1nc2ccc(Cl)cc2[nH]c1=O)C(O)c1ccc2c(c1)OCO2` (stereo unspecified), the TGI in the test on NCI-H522 lung, in the test with LOX IMVI melanoma, with M14 melanoma, with SF-268 CNS, with NCI-H460 lung and with HOP-62 NSCLC was more than 100 µM each time.
On to `CCOC(=O)C(=O)Nc1c(C)cccc1C(C)C`, for which the TGI in the test with NCI-H522 lung, in the test with CAKI-1 renal, in the test on M14 melanoma, with SF-268 CNS, with NCI-H460 lung and in the test on HOP-62 NSCLC was more than 100 µM each time.
As for `COc1ccc(C(=O)CC(=O)C(=O)Nc2ccc(C)c(C)c2)cc1`, the TGI in the test on NCI-H522 lung is more than 100 µM; in the test with LOX IMVI melanoma, more than 55.7 µM; in the test on CAKI-1 renal, more than 100 µM; in the test with M14 melanoma, more than 100 µM; in the test with SF-268 CNS, more than 100 µM; in the test on NCI-H460 lung, more than 56.8 µM. Moreover, the TGI with HOP-62 NSCLC was more than 100 µM.
On to `COC1=CC(c2ccc[nH]2)=N/C1=C\c1[nH]c(C)c(C(C)=O)c1C`, for which the GI50 with NCI-H522 lung is 1.6 µM; with CAKI-1 renal, 0.63 µM; in the test on SF-268 CNS, 0.854 µM; with NCI-H460 lung, 0.451 µM; in the test on MDA-MB-435 it was 0.299 µM; in the test with HOP-62 NSCLC, 0.69 µM. Further, in the test on NCI/ADR-RES ovarian, the GI50 is 0.458 µM. Further, the TGI is more than 100 µM in the test on CAKI-1 renal; more than 100 µM in the test on SF-268 CNS; more than 22.8 µM in the test with NCI-H460 lung; more than 100 µM in the test on MDA-MB-435; more than 42.2 µM in the test on HOP-62 NSCLC; more than 100 µM in the test with NCI/ADR-RES ovarian.
Regarding `CC1=NC(C(C)C)C(=O)O1` (stereo unspecified), the total growth inhibition concentration (TGI) in the test on NCI-H522 lung, with CAKI-1 renal, in the test on M14 melanoma, in the test with SF-268 CNS, with NCI-H460 lung and in the test with HOP-62 NSCLC was more than 100 µM each time.
On to `O=C1OC(c2ccccc2)=N/C1=C\c1cc(Cl)ccc1Cl`, for which the total growth inhibition concentration (TGI) in the test with NCI-H522 lung, in the test with M14 melanoma, in the test on SF-268 CNS, in the test with NCI-H460 lung and in the test on HOP-62 NSCLC was more than 100 µM in each case.
For the compound `CCOC(=O)NC(=O)c1cn(CCCOC(=O)NCCCCCCNC(=O)OCCCn2cc(C(=O)NC(=O)OCC)c(=O)[nH]c2=O)c(=O)[nH]c1=O`, the concentration for total growth inhibition (TGI) was more than 100 µM with LOX IMVI melanoma; 35 µM with CAKI-1 renal; 35.4 µM in the test with M14 melanoma; more than 100 µM in the test with NCI-H460 lung; more than 100 µM in the test with HOP-62 NSCLC.
Turning to `CCCc1nc(NC#N)nc(C(=O)NC23CC4CC(CC(C4)C2)C3)c1C`, the TGI in the test with NCI-H522 lung, with LOX IMVI melanoma, in the test with CAKI-1 renal, with M14 melanoma, in the test with SF-268 CNS and with NCI-H460 lung was more than 100 µM each time. Moreover, in the test with HOP-62 NSCLC, the concentration for total growth inhibition (TGI) was more than 100 µM.
On to `O=NN/C(=C1\Nc2ccc([N+](=O)[O-])cc2NC1=O)C(O)c1ccc([N+](=O)[O-])cc1` (stereo unspecified), for which the concentration for total growth inhibition (TGI) in the test with NCI-H522 lung, with LOX IMVI melanoma, in the test on CAKI-1 renal, in the test on M14 melanoma, in the test on SF-268 CNS and in the test with NCI-H460 lung was more than 100 µM each time. The same compound had a TGI in the test on HOP-62 NSCLC of more than 100 µM.
`COC(=O)CS(=O)c1ccccc1` (stereo unspecified): the TGI in the test with NCI-H522 lung was 30.1 µM; in the test with LOX IMVI melanoma it was 44.4 µM; in the test on CAKI-1 renal, more than 100 µM; in the test with M14 melanoma it was more than 100 µM; with SF-268 CNS, 91.6 µM; in the test on NCI-H460 lung, more than 100 µM. Further, the total growth inhibition concentration (TGI) in the test on HOP-62 NSCLC came to 83.3 µM.
Regarding `CCCCCCCCCCCCCCCCCC(=O)OCC(C[As](=O)(O)O)OC(=O)CCCCCCCCCCCCCCCCC` (stereo unspecified), the TGI with NCI-H522 lung is more than 100 µM; in the test with CAKI-1 renal, more than 100 µM; in the test with M14 melanoma it was more than 100 µM; in the test on SF-268 CNS, more than 100 µM; in the test on NCI-H460 lung, more than 100 µM; in the test on HOP-62 NSCLC, 85.2 µM.
On to `O=C(O)c1cccc2cccc(C(=O)O)c12.[Hg]`, for which the GI50 is 0.687 µM in the test on NCI-H522 lung; 14.7 µM in the test with LOX IMVI melanoma; 21.7 µM with CAKI-1 renal; 14 µM in the test with M14 melanoma; 11.5 µM in the test with SF-268 CNS; 16.4 µM with NCI-H460 lung. Moreover, in the test with HOP-62 NSCLC, the GI50 is 20.8 µM. The TGI in the test on NCI-H522 lung came out at 2.42 µM; in the test on LOX IMVI melanoma, 27.9 µM; in the test with CAKI-1 renal, 53.8 µM; with M14 melanoma, 27 µM; with SF-268 CNS it was 26.5 µM; in the test on NCI-H460 lung it was 31.7 µM. The compound also gave a TGI with HOP-62 NSCLC of 35.3 µM.

Values taken from PubChem BioAssay (NCI).
